The values below come from the METLIN SMRT retention time set (Domingo-Almenara et al. 2019).

Each structure is given as a SMILES string.

This data set can be described thus: gradient 5% acetonitrile 3 min, to 50% in 2 min, to 85% in 15 min, held 3 min, 100 µL/min. Particulars: column: Zorbax Extend-C18 2.1 x 50 mm; eluents: water / acetonitrile, 0.1% formic acid. In outline: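 The system's dead and dwell volumes were 40 μL and 900 μL, with a Zorbax Extend-C18 column (2.1 × 50 mm, 1.8 μm) run at 100 μL/min in water and acetonitrile containing 0.1% formic acid each. Pure standards were analyzed in mixtures of ~100 molecules by HPLC–quadrupole time-of-flight mass spectrometry in positive and negative ionization mode. Retention time was assigned from computationally picked, manually inspected adduct peaks.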
For `CCC(C)NC(=O)CN1C(=O)CCc2cc(S(=O)(=O)N3CCC(C)CC3)ccc21` (stereo not given), the RP-LC retention time was found to be 858 s.

Regarding `CCn1ccc(C(=O)Nc2cc(Cl)ccc2Cl)n1`, the RP-LC retention time stood at 1140 s.

As to `COc1cccc(N2CCN(Cc3nc4nc(C)cc(N(C)C)n4n3)CC2)c1`, the RP-LC retention time came out at 610 s. The result for `Cc1ccc(C(=O)Nc2ccc(N3CCN(C4CCCC4)C3=O)nc2)cc1` reads 888 s; that for `CCOc1cc(CNc2ccc3[nH]c(=O)[nH]c3c2)cc(Br)c1OC`, 677 s; that for `Cc1c(C)n(-c2ccc(Cl)cc2)c2ncn(CC(=O)N3CCCC3)c(=O)c12`, 803 s. `CCC1Oc2ccc(S(=O)(=O)N3CCC(C(=O)Nc4cc(C)cc(C)c4)CC3)cc2NC1=O` (stereo not given) registered an RP-LC retention time of 837 s. As to `O=C(NC1CCCCCCC1)C1CCN(C(=O)c2ncn3c2COC(c2ccc(F)cc2)C3)CC1` (stereo not given), the RP-LC retention time stood at 852 s. The result for `COc1ccccc1NC(=O)Cn1nc2c(Oc3cccc(F)c3)nccn2c1=O` reads 867 s.

In the case of `Cc1cc(C(=O)NCc2ccco2)c2c(=O)n(C)c(=O)n(C)c2n1`, the RP-LC retention time amounted to 663 s. The result for `COc1ccc(N2C=C(C#N)S(=O)(=O)c3ccc(Cl)cc32)c(OC)c1` reads 995 s; that for `COc1ccc(C(=O)N2CCC3(CC2)N=C(c2ccc(Br)cc2)NO3)cc1OC`, 820 s; that for `CCn1ccc2cc(S(=O)(=O)N3CCC(C(=O)NCCCN4CCCCC4C)CC3)ccc21` (stereo not given), 665 s. The result for `CN(C)C(=O)c1ccc2c(c1)nc(CN1CCN(C(=O)COc3ccc(Cl)cc3)CC1)n2C` reads 640 s. In turn, `CCOc1ccc(-n2ccn3cc(-c4cc(OC)ccc4OC)nc3c2=O)cc1` yielded an RP-LC retention time of 895 s.

In turn, `Fc1ccc(Nc2nc(-c3ccccc3)cs2)cc1` registered an RP-LC retention time of 1120 s. The compound `Cc1nn(C(=O)C(C)(C)C)c(C)c1S(=O)(=O)N1CCOCC1` gave an RP-LC retention time of 1090 s. The compound `CCn1cc(C)c(C(=O)O)c1CC(=O)Nc1cc(C)ccc1C` registered an RP-LC retention time of 866 s.

In turn, `COc1ccc(NC(=O)C(C)C2CCN(C(=O)Nc3ccc(Cl)cc3)CC2)c(OC)c1` (stereo not given) yielded an RP-LC retention time of 898 s. The result for `CCc1cccc(C)c1NC(=O)C1CCN(S(C)(=O)=O)c2ccccc2O1` (stereo not given) reads 880 s. On to `O=C(Nc1cccn2cnnc12)c1ccc(Cl)s1`, for which the RP-LC retention time came out at 719 s. Compound `O=c1c2sccc2n(Cc2nc(-c3ccccc3)no2)c(=O)n1-c1ccccc1F` showed an RP-LC retention time of 969 s.

Compound `CC1(c2ccccc2)NN=C2Oc3ccccc3N21` (stereo not given) displayed an RP-LC retention time of 812 s. The result for `CCC(C(=O)NCCN1CCN(CC)CC1)n1c2ccccc2c2cnn(C)c(=O)c21` (stereo not given) reads 595 s; that for `O=C(Nc1nnc(SCc2cccc(F)c2)s1)C1CCCCC1`, 1010 s. The result for `Cc1cc2[nH]c(=O)[nH]c2cc1S(=O)(=O)N1CCN(Cc2ccccc2)CC1` reads 548 s. As for `CCc1nccn1Cc1noc(-c2ccccc2Cl)n1`, the RP-LC retention time amounted to 564 s.

Consider `O=C(c1cc2ccccc2o1)N1CCN(C(=O)C2COc3ccccc3O2)CC1` (stereo not given), for which the RP-LC retention time came to 829 s. The compound `O=C(Nc1cc(-c2ccsc2)no1)c1ccc(C(F)(F)F)cc1` came in with an RP-LC retention time of 1060 s. For `Cc1ccc(NC(=O)Cn2cnc(C)c(C)c2=O)cc1F` the value was 630 s. `c1ccc(-c2cc(NCc3ccccn3)n3ncc(-c4ccccc4)c3n2)cc1` came in with an RP-LC retention time of 1180 s.

In the case of `O=C1COc2cc(S(=O)(=O)N3CCC(C(=O)NC4CCCC4)CC3)c(Cl)cc2N1`, the RP-LC retention time was 735 s. Turning to `Cc1cc(C)cc(C(=O)NC2(c3nc(-c4ccccc4)no3)CCCCC2)c1`, the RP-LC retention time stood at 1280 s. For `CCOc1ccc(C(=O)N2CCCC2c2nc(-c3ccc(OC)c(OC)c3)no2)cc1` (stereo not given) the value was 927 s; for `O=C(NC1CCCc2ccccc21)C1CCN(C(=O)c2cccn2-c2cccnc2)CC1` (stereo not given), 742 s.

With `CCCN1C(=O)c2cc(S(=O)(=O)Nc3ccc(F)c(C)c3)ccc2Oc2cccnc21`, the RP-LC retention time was 1100 s. For `O=C(CSc1nnnn1-c1cccc(C(F)(F)F)c1)N1CCOCC1` the value was 733 s; for `CC(CCc1ccccc1)NC(=O)c1ccccc1NC(=O)C1=CSCCO1` (stereo not given), 1080 s; for `CC1=C(c2ccccc2)S(=O)(=O)N=C1N1CCC(NC(=O)C2CCCO2)CC1` (stereo not given), 702 s.

With `Cc1c(C(=O)N(C)C)cc(-c2ccccc2)n1C`, the RP-LC retention time was found to be 812 s. The compound `CCc1ccc2nc(C)cc(C(=O)NC3CC3)c2c1` gave an RP-LC retention time of 605 s. The result for `CSCC(=O)N1CCC(C2CCN(C(C)=O)CC2)C1` (stereo not given) reads 624 s; that for `COc1ccc2nc(OC3CCN(C(=O)c4ccc(S(C)(=O)=O)cc4)CC3)sc2c1`, 774 s; that for `CCOC(=O)CNC(=O)N(C)CCc1noc(-c2ccc(F)cc2)n1`, 742 s.

The compound `COc1ccccc1C(=O)N1CCc2ccccc2[C@H]1C` returned an RP-LC retention time of 893 s. For `O=C(Nc1nc2c(s1)COCC2)c1cccs1` the value was 664 s; for `COc1ccc(-c2csc(C)n2)cc1S(=O)(=O)N1CCN(c2ccccc2F)CC1`, 1110 s. For `O=C(c1ccco1)N1CCC2(CC1)NC(=O)N(Cc1ccc(F)cc1)C2=O` the value was 692 s; for `Cc1cnc(CC2CCN(C(=O)C3CCC3)C2)n1C(C)C` (stereo not given), 585 s. For `Cc1cc(OCC(=O)NCc2ccc(Cl)cc2)nc(N2CCCC2)n1` the value was 645 s; for `O=C(Nc1ccc2c(c1)OCCO2)C(=O)c1cn(CC(=O)N2CCCCC2)c2ccccc12`, 1010 s; for `Cc1sc2ccn(C)c(=O)c2c1C(=O)NCCN1CCc2ccccc2C1`, 687 s. As to `COc1ccc(NC(=O)N2CCc3nc(-c4ccccc4)sc3C2)cc1OC`, the RP-LC retention time worked out at 820 s.

With `COc1ccc(NC(=O)N2CCC3(C2)C(=O)Nc2ccccc23)c(OC)c1` (stereo not given), the RP-LC retention time worked out at 678 s.

`CS(=O)(=O)N1CCC(C(=O)NCC(O)c2ccc(C(F)(F)F)cc2)CC1` (stereo not given): the RP-LC retention time was found to be 652 s.

`O=C(NCc1cccs1)C1CCCN(c2nc3ccsc3c(=O)n2-c2ccc(F)cc2)C1` (stereo not given): the RP-LC retention time is 843 s. `CCN1C(=O)COc2cc(-c3noc(C(=O)NCCc4ccc(S(N)(=O)=O)cc4)n3)ccc21`: the RP-LC retention time is 732 s. For the compound `COCCN1C(=O)c2ccccc2C(C(=O)N2CCN(c3ccccn3)CC2)C1c1ccc(F)cc1` (stereo not given), the RP-LC retention time is 619 s. For `COc1ccc(-c2nnc(-c3ccccc3)o2)cc1S(=O)(=O)N1CCC(C)CC1` the value was 1090 s. In turn, `COc1ccccc1NC(=O)Cn1ncc2c(N3CCN(c4ccccn4)CC3)ncnc21` had an RP-LC retention time of 600 s.
